What was measured:
[1] = molecular target: T1, Dopamine beta-hydroxylase (Bos taurus) (UniProt P15101); assay: Kinetic constant for inactivation (k inact) of Dopamine beta-Hydroxylase (DBH) from bovine adrenal medulla; assay type: tissue-based
T1 sequence (whole entry): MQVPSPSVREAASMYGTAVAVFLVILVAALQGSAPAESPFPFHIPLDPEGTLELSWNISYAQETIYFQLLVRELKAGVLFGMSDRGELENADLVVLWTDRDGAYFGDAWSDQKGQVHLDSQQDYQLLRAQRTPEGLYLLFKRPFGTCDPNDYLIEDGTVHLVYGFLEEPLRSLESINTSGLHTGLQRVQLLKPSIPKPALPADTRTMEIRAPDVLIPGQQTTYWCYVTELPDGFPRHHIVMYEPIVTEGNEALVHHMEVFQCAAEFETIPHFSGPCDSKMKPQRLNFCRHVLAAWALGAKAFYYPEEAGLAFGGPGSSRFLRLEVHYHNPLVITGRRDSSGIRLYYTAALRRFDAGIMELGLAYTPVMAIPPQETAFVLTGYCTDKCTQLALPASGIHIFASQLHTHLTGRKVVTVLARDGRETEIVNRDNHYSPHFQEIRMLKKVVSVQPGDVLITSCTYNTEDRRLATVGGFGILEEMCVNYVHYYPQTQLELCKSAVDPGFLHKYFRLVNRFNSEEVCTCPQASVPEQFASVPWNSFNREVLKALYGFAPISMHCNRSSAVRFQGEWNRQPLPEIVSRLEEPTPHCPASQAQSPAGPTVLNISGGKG

[2] = Ratio of kinetic constant k inact to KI was determined
[3] = molecular target: T2, Dopamine beta-hydroxylase (Bos taurus, UniProt P15101); assay: Kinetic constant for inhibition (KI) of Dopamine beta-Hydroxylase (DBH) from bovine adrenal medulla; assay type: tissue-based
T2 sequence (P15101 whole entry): T1 sequence (whole entry)

Compound | K inact [1] [min⁻¹] | Ratio [2] [M⁻¹ min⁻¹] | Ki [3] [µM]
Oc1ccc2c(c1)C1CC1C2 (configuration not stated) | 0.23 | 1530 | 150
Oc1cc2c(cc1O)C1CC1C2 (configuration not stated) | 0.129 | 1180 | 109
COc1ccc2c(c1)C1NC1C2 (configuration not stated) | 0.03 | 70 | 400
COc1ccc(CC2CC2)cc1 | 0.018 | 75 | 240
COc1ccc2c(c1)C1OC1C2 (configuration not stated) | 0.07 | 110 | 650
c1ccc2c(c1)CC1OC21 (configuration not stated) | 0.08 | 70 | 1060
COc1ccc2c(c1)C1CC1C2 (configuration not stated) | 0.11 | 100 | 1120
Oc1ccc(CC2CC2)cc1 | – | 150 | 12000
c1c2c(cc3c1OCO3)C1CC1C2 (configuration not stated) | 0.06 | 370 | 160
c1ccc2c(c1)CC1CC21 (configuration not stated) | 0.2 | 70 | 3030
c1c2c(cc3c1OCO3)C1OC1C2 (configuration not stated) | 0.06 | 60 | 1010
